Assay results as given in US7368432B2 (Xenome, Ltd., priority 1999, dated 2008).

Key:
CF-1 mice = settings: mouse, in vivo
neurotensin receptors = settings: in vivo; cited from earlier work

Row | Substance | motor impairment (rotarod) (CF-1 mice) | potency in inhibiting pain relative to neurotensin (neurotensin receptors)
1 | NGVCCGYKLCHOC [Mar1] | do not produce gross motor impairment or impair performance on the rotarod test | 
2 | Contulakin-G |  | significantly more potent than neurotensin
